The source made the active and inactive calls. The calls are words filed in the database; no cut-off is given here.
How the values were obtained:
[1] = system: Candida albicans; assay: Antifungal activity against Candida albicans ATCC 10231 by broth dilution method; assay type: functional
[2] = organism: Danio rerio; assay: Toxicity against zebrafish embryo assessed as growth retardation at 5 ug/ml measured at 96 hrs post fertilization by inverted microscopic analysis; assay type: organism-based; conditions: in vivo
[3] = system: Aspergillus fumigatus; assay: Antifungal activity against Aspergillus fumigatus ATCC 13073 by broth dilution method; assay type: functional
[4] = system: Candida albicans; assay: Induction of DNA intercalation with Candida albicans genomic DNA at 25 ug/ml after 12 hrs by ethidium bromide staining based gel electrophoresis method
[5] = organism: Danio rerio; assay: Toxicity against zebrafish embryo assessed as effect on tail tip at 2.5 ug/ml measured at 96 hrs post fertilization by inverted microscopic analysis; assay type: organism-based; conditions: in vivo
[6] = system: Candida albicans; assay: Antifungal activity against Candida albicans CA5 by broth dilution method; assay type: functional
[7] = organism: Danio rerio; assay: Toxicity against zebrafish embryo assessed as effect on tail tip at 10 ug/ml measured at 96 hrs post fertilization by inverted microscopic analysis; assay type: organism-based; conditions: in vivo
[8] = organism: Danio rerio; assay: Toxicity against zebrafish embryo assessed as effect on blood circulation at 10 ug/ml measured at 96 hrs post fertilization by inverted microscopic analysis; assay type: organism-based; conditions: in vivo
[9] = system: Microsporum canis; assay: Antifungal activity against Microsporum canis DMT2 by broth dilution method; assay type: functional
[10] = system: Candida albicans; assay: Antibiofilm activity against Candida albicans ATCC 10231 assessed as disruption of preformed biofilm after 24 hrs by concanavalin A-FITC-staining based fluorescence microscopic analysis; assay type: functional
[11] = organism: Danio rerio; assay: Toxicity against zebrafish embryo assessed as skeletal deformities at 5 ug/ml measured at 96 hrs post fertilization by inverted microscopic analysis; assay type: organism-based; conditions: in vivo
[12] = system: Pichia kudriavzevii; assay: Antibiofilm activity against Pichia kudriavzevii ATCC 34135 assessed as disruption of preformed biofilm after 24 hrs by concanavalin A-FITC-staining based fluorescence microscopic analysis; assay type: functional
[13] = organism: Danio rerio; assay: Toxicity against zebrafish embryo assessed as teratogenic embryos at 50 ug/ml measured at 96 hrs post fertilization by inverted microscopic analysis; assay type: organism-based; conditions: in vivo
[14] = system: Trichophyton mentagrophytes; assay: Antifungal activity against Trichophyton mentagrophytes DMT4 by broth dilution method; assay type: functional
[15] = Toxicity against zebrafish embryo assessed as dead embryos at 25 ug/ml measured at 96 hrs post fertilization by inverted microscopic analysis; assay type: organism-based, Danio rerio; conditions: read-out: Activity
[16] = system: Danio rerio; assay: Toxicity against zebrafish embryo assessed as pericardial edema at 10 ug/ml measured at 96 hrs post fertilization by inverted microscopic analysis; assay type: organism-based; conditions: in vivo
[17] = Toxicity against zebrafish embryo measured at 96 hrs post fertilization by inverted microscopic analysis; assay type: organism-based, Danio rerio; conditions: zebrafish embryos
[18] = system: Candida parapsilosis; assay: Antibiofilm activity against Candida parapsilosis C27 assessed as disruption of preformed biofilm after 24 hrs by concanavalin A-FITC-staining based fluorescence microscopic analysis; assay type: functional
[19] = organism: Danio rerio; assay: Toxicity against zebrafish embryo assessed as teratogenic embryos at 5 ug/ml measured at 96 hrs post fertilization by inverted microscopic analysis; assay type: organism-based; conditions: in vivo
[20] = system: Candida albicans; assay: Antibiofilm activity against Candida albicans assessed as inhibition of Spider medium-induced hyphae formation at sub-MIC after 24 hrs by propidium iodide and FITC-conjugated concanavaline A staining based fluorescence microscopy; assay type: functional, organism-based
[21] = organism: Danio rerio; assay: Toxicity against zebrafish embryo assessed as effect on notochord at 2.5 ug/ml measured at 96 hrs post fertilization by inverted microscopic analysis; assay type: organism-based; conditions: in vivo
[22] = organism: Danio rerio; assay: Toxicity against zebrafish embryo assessed as head malformation at 10 ug/ml measured at 96 hrs post fertilization by inverted microscopic analysis; assay type: organism-based; conditions: in vivo
[23] = system: Danio rerio; assay: Toxicity against zebrafish embryo assessed as yolk edema at 10 ug/ml measured at 96 hrs post fertilization by inverted microscopic analysis; assay type: organism-based; conditions: in vivo
[24] = organism: Danio rerio; assay: Toxicity against zebrafish embryo assessed as normal embryos at 25 ug/ml measured at 96 hrs post fertilization by inverted microscopic analysis; assay type: organism-based; conditions: in vivo
[25] = organism: Danio rerio; assay: Toxicity against zebrafish embryo assessed as teratogenic embryos at 10 ug/ml measured at 96 hrs post fertilization by inverted microscopic analysis; assay type: organism-based; conditions: in vivo
[26] = organism: Danio rerio; assay: Toxicity against zebrafish embryo assessed as unhatched embryos at 5 ug/ml measured at 96 hrs post fertilization by inverted microscopic analysis; assay type: organism-based; conditions: in vivo
[27] = system: Pichia kudriavzevii; assay: Antifungal activity against Candida krusei ATCC 34135 by broth dilution method; assay type: functional
[28] = organism: Danio rerio; assay: Toxicity against zebrafish embryo assessed as effect on notochord at 5 ug/ml measured at 96 hrs post fertilization by inverted microscopic analysis; assay type: organism-based; conditions: in vivo
[29] = system: Danio rerio; assay: Toxicity against zebrafish embryo assessed as yolk edema at 5 ug/ml measured at 96 hrs post fertilization by inverted microscopic analysis; assay type: organism-based; conditions: in vivo
[30] = organism: Danio rerio; assay: Toxicity against zebrafish embryo assessed as effect on heart beat at 5 ug/ml measured at 96 hrs post fertilization by inverted microscopic analysis; assay type: organism-based; conditions: in vivo
[31] = system: Danio rerio; assay: Toxicity against zebrafish embryo assessed as pericardial edema at 2.5 ug/ml measured at 96 hrs post fertilization by inverted microscopic analysis; assay type: organism-based; conditions: in vivo
[32] = Toxicity against zebrafish embryo assessed as dead embryos at 50 ug/ml measured at 96 hrs post fertilization by inverted microscopic analysis; assay type: organism-based, Danio rerio; conditions: read-out: Activity
[33] = organism: Danio rerio; assay: Toxicity against zebrafish embryo assessed as unhatched embryos at 2.5 ug/ml measured at 96 hrs post fertilization by inverted microscopic analysis; assay type: organism-based; conditions: in vivo
[34] = organism: Danio rerio; assay: Toxicity against zebrafish embryo assessed as effect on otoliths at 10 ug/ml measured at 96 hrs post fertilization by inverted microscopic analysis; assay type: organism-based; conditions: in vivo
[35] = system: MRC5; assay: Cytotoxicity against human MRC5 cells after 48 hrs by MTT assay; assay type: cell-based; conditions: MRC5, 48 h
[36] = organism: Danio rerio; assay: Toxicity against zebrafish embryo assessed as effect on heart beat at 10 ug/ml measured at 96 hrs post fertilization by inverted microscopic analysis; assay type: organism-based; conditions: in vivo
[37] = organism: Danio rerio; assay: Toxicity against zebrafish embryo assessed as effect on notochord at 10 ug/ml measured at 96 hrs post fertilization by inverted microscopic analysis; assay type: organism-based; conditions: in vivo
[38] = system: Fusarium oxysporum; assay: Antifungal activity against Fusarium oxysporum AB18 by broth dilution method; assay type: functional
[39] = organism: Danio rerio; assay: Toxicity against zebrafish embryo assessed as normal embryos at 10 ug/ml measured at 96 hrs post fertilization by inverted microscopic analysis; assay type: organism-based; conditions: in vivo
[40] = organism: Danio rerio; assay: Toxicity against zebrafish embryo assessed as effect on blood circulation at 2.5 ug/ml measured at 96 hrs post fertilization by inverted microscopic analysis; assay type: organism-based; conditions: in vivo
[41] = Toxicity against zebrafish embryo assessed as dead embryos at 10 ug/ml measured at 96 hrs post fertilization by inverted microscopic analysis; assay type: organism-based, Danio rerio; conditions: read-out: Activity
[42] = organism: Danio rerio; assay: Toxicity against zebrafish embryo assessed as normal embryos at 2.5 ug/ml measured at 96 hrs post fertilization by inverted microscopic analysis; assay type: organism-based; conditions: in vivo
[43] = organism: Danio rerio; assay: Toxicity against zebrafish embryo assessed as effect on eyes at 2.5 ug/ml measured at 96 hrs post fertilization by inverted microscopic analysis; assay type: organism-based; conditions: in vivo
[44] = system: Candida parapsilosis; assay: Antifungal activity against Candida parapsilosis C27 by broth dilution method; assay type: functional; conditions: Lodderomyces parapsilosis
[45] = system: Candida albicans; assay: Antifungal activity against Candida albicans CA5 assessed as fungal growth at sub-MIC measured after 24 hrs by time-kill dependence-based spectrophotometric analysis relative to DMSO control; assay type: functional, organism-based
[46] = organism: Danio rerio; assay: Toxicity against zebrafish embryo assessed as effect on heart beat at 2.5 ug/ml measured at 96 hrs post fertilization by inverted microscopic analysis; assay type: organism-based; conditions: in vivo
[47] = organism: Danio rerio; assay: Toxicity against zebrafish embryo assessed as unhatched embryos at 10 ug/ml measured at 96 hrs post fertilization by inverted microscopic analysis; assay type: organism-based; conditions: in vivo
[48] = organism: Danio rerio; assay: Toxicity against zebrafish embryo assessed as growth retardation at 2.5 ug/ml measured at 96 hrs post fertilization by inverted microscopic analysis; assay type: organism-based; conditions: in vivo

SMILES: Cl.N=C(N)N/N=C/c1ccc(-c2ccc(Br)cc2)s1
- MIC [1]: 3.12 µg/mL
- Activity [2]: 0%
- MIC [3]: 6.25 µg/mL
- Activity [4]: Active
- Activity [5]: 0%
- MIC [6]: 1.56 µg/mL
- Activity [7]: 0%
- Activity [8]: 0%
- MIC [9]: 0.25 µg/mL
- MBEC [10]: 125 µg/mL
- Activity [11]: 0%
- MBEC [12]: 125 µg/mL
- Activity [13]: 0%
- MIC [14]: 0.97 µg/mL
- mortality at 96 h, 25 ug/ml [15]: 73.3%
- Activity [16]: 33.33%
- LC50 at 96 h [17]: 14.1 µg/mL
- MBEC [18]: 125 µg/mL
- Activity [19]: 10%
- Activity [20]: Active
- Activity [21]: 0%
- Activity [22]: 0%
- Activity [23]: 0%
- Activity [24]: 0%
- Activity [25]: 23.33%
- Activity [26]: 0%
- MIC [27]: 1.56 µg/mL
- Activity [28]: 0%
- Activity [29]: 0%
- Activity [30]: 0%
- Activity [31]: 0%
- mortality at 96 h, 50 ug/ml [32]: 100%
- Activity [33]: 0%
- Activity [34]: 0%
- IC50 [35]: 2 µg/mL
- Activity [36]: 0%
- Activity [37]: 0%
- MIC [38]: 3.9 µg/mL
- Activity [39]: 46.67%
- Activity [40]: 0%
- mortality at 96 h, 10 ug/ml [41]: 30%
- Activity [42]: 100%
- Activity [43]: 0%
- MIC [44]: 3.9 µg/mL
- Activity [45]: inactive
- Activity [46]: 0%
- Activity [47]: 0%
- Activity [48]: 0%

From ChEMBL document CHEMBL3763135, “Synthesis and evaluation of thiophene-based guanylhydrazones (iminoguanidines) efficient against panel of voriconazole-resistant fungal isolates” (Bioorg Med Chem, 2016)
